Laboratory results reported in a melting point compilation (Tetko et al.; mined from patent text by program, amines drawn as free bases though some values may be those of a salt).

Row | SMILES | melting point
1 | O=C(c1ccc(Nc2ccccc2[N+](=O)[O-])cc1)c1ccccc1O | 189 to 193 °C
2 | O=C(NC1=NN(c2ccc(C(=O)C(F)(F)F)cc2)CC1)C(F)(F)F | 228 to 230 °C
3 | CCc1n[nH]c(C(N)=O)c1NC(=O)c1cc(S(C)(=O)=O)ccc1OCc1ccccn1 | 134 to 138 °C
4 | CCCCCCCCc1ccc2nc(N)nc(N)c2c1C | 262 to 264 °C
5 | O=C(O)Cc1c(-c2ccccc2)nn(-c2cccnc2)c1-c1ccccc1 | 185 to 187 °C
6 | CC(C)c1ccccc1N/C(S)=C(\C#N)C(=O)Nc1ccc(-c2ncn(-c3ccc(OC(F)(F)F)cc3)n2)cc1 | 159 to 162 °C
7 | COc1cc(C#N)ccc1-c1nc2cc(Cl)c(Cl)cc2[nH]1 | > 250 °C
8 | NC(=S)NCc1ccco1 | 80 to 91 °C
9 | CCCCCCCCCCCCC(C)COc1ccc(C(C)=O)o1 (stereo unspecified) | 45 to 47 °C
10 | O=C(O)C(O)Cc1ccccc1[N+](=O)[O-] (stereo unspecified) | 95 to 98 °C
11 | COc1ccc(Cl)c2oc(-c3ccc(S(N)(=O)=O)cc3)c(-c3ccc(F)cc3)c(=O)c12 | 279 to 281 °C
12 | O=C(NC1CN2CCC1CC2)c1cccc2oc(-c3ccc(F)cc3)nc12 (stereo unspecified) | 208 to 209 °C
13 | O=C1c2ccccc2C(=O)N1Oc1ccc([N+](=O)[O-])cc1C(F)(F)F | 190 °C
14 | Cc1ccc(NC(=O)c2nc(C)cc(C#N)c2C)nc1 | 212 °C
15 | O=c1oc(-c2ccccc2)cc(O)c1Sc1cccc(Cl)c1 | 181 to 182 °C
16 | CNc1ccccc1CS(=O)c1nccn1-c1cc(C)ccn1 (stereo unspecified) | 112 to 114 °C
17 | CC(=O)N[C@@H](CSc1ccccc1[N+](=O)[O-])C(=O)O | 175 to 176 °C
18 | O=C(O)CCCCCCC(=O)c1cccnc1 | 113 to 115 °C
19 | FC(F)(F)c1cccc(C(CC2=NCCN2)c2ccc3ccccc3n2)c1 (stereo unspecified) | 92 to 93 °C
20 | CSc1ccc(C(=O)Nc2ccccc2)cc1[N+](=O)[O-] | 219 to 222 °C
21 | O=CC1=Cc2cc(OCCCc3ccccc3)ccc2OC1 | 71 to 73 °C
22 | Cc1cccc(C=CCC(C(=O)C=Cc2ccc(Cl)cc2)c2ccccc2)c1 (stereo unspecified) | 89 to 93 °C
23 | CCOC(=O)c1c(Br)c2cc(OCc3ccccc3)ccc2n1C | 125 to 127 °C
24 | CSc1ncc(Cc2ccncc2)c(=O)[nH]1 | 179 to 182 °C

Row | SMILES | melting point
25 | Cc1nc2c(O[C@@H]3c4ccccc4C[C@H]3O)cccn2c1C=O (relative stereo) | 187 to 192 °C
26 | O=C1CCCN1CCCC(=O)N1CCC(C2c3ncc(Br)cc3CCc3cc(Cl)cc(Br)c32)CC1 (single isomer, unassigned; (+)) | 127 to 128 °C
27 | CCCC(=O)NCC1Cc2cccc3cccc1c23 (stereo unspecified) | 111 °C
28 | COc1ccc2nccc(C(=O)CC[C@@H]3CCN(CC#Cc4cc(F)cc(F)c4F)C[C@@H]3C(=O)O)c2c1 | 70 °C
29 | O=C1CN=C(c2ccccc2)O1 | 83 to 86 °C
30 | O=C1c2cc(O)ccc2OCC1Cc1ccncc1 (stereo unspecified) | 188 to 190 °C
31 | O=[N+]([O-])c1cc(C(F)(F)F)ccc1C1(O)CC=NO1 (stereo unspecified) | 122 to 123 °C
32 | CCOC(=O)c1[nH]c2cc(Cl)cc(Cl)c2c1NCCC(=O)c1ccc(C(F)(F)F)cc1 | 232 to 234 °C
33 | CCCCNc1nc(C=O)c(C#N)cc1C(=O)OCC | 81 to 83 °C
34 | NC(CC(=O)O)c1ccc(Br)cc1 (stereo unspecified) | 234 °C
35 | COc1ccc(OC)c2c1C(C)(C)CCC2(C)C | 195 °C
36 | O=C1NC(=O)c2c1c(-c1ccccc1Cl)cc1c2c2cc(O)ccc2n1CC(O)CO (stereo unspecified) | 305 to 309 °C
37 | O=[N+]([O-])c1cc(S(=O)(=O)C(F)(F)F)[nH]c1-c1ccc(Cl)cc1 | 97 to 99 °C
38 | Cc1cc2c(-c3ccccc3F)c(C(=O)O)oc(=O)c2cc1C | 214 to 217 °C
39 | CN(CCOc1cccc(Cl)c1CN)Cc1ccccc1 | 85 °C
40 | C[C@]12CC[C@@H]3c4ccc(OCC(=O)O)cc4CC[C@H]3[C@@H]1CCC2=O | 205 to 208 °C
41 | CC(C)(C)OC(=O)CN1CCC2(CCNCC2)OC1=O | 110 to 115 °C
42 | O=C(O)/C=C/c1ccc(-c2nc3c(=O)n(CCC4CCCCCC4)c(=O)n(CCC4CCCCCC4)c3[nH]2)cc1 | > 250 °C
43 | COC(=O)CC1=CCN(C)c2ccc(Cl)cc21 | 99 to 101 °C
44 | CCN1C(=O)C(C)(C)C(=O)N(C)c2cc(CN(CCn3ccc4oc(C)cc4c3=O)Cc3ccc4c(c3)OCO4)ccc21 | 180 to 182 °C
45 | CCN(CC)CCOc1ccc(C2c3cc(OC)ccc3-c3ccc4ccccc4c32)cc1 (stereo unspecified) | 109 to 115 °C
46 | CC(C)OC(=O)c1cn(Cc2c(F)cccc2F)c2nc(-c3ccc(N)cc3)c(CN(C)Cc3ccccc3)n2c1=O | 168 to 170 °C
47 | COc1ccc(-c2ccc(F)cc2F)cc1 | 73 to 76 °C
48 | CC(C)(O)C#Cc1ccc2[nH]ccc2c1 | 119 to 123 °C

Results, then the compound that gave them:

Row | melting point | SMILES
49 | 142 to 143 °C | CCOC(=O)c1cnc(-c2ccccc2)nc1OCc1ccc(OCc2nc(-c3ccco3)oc2C)c(OC)c1
50 | 80.8 °C | CCOC(=O)C1CCc2cc([N+](=O)[O-])ccc2O1 (stereo unspecified)
51 | 144 °C | O=C(N=c1sc2cc(OC(F)(F)F)ccc2n1CCCO)C(F)(F)F
52 | 71 to 73 °C | FC(F)(F)Oc1ccc(-n2ccc(CBr)n2)cc1
53 | 133 °C | CC(=O)N(O)Cc1cccc(C(O)C#Cc2ccsc2)c1 (stereo unspecified)
54 | 192 to 193 °C | O=S(=O)(NC1CCN(C2CCCCC2)CC1)c1ccc(Nc2ccnc3cc(Cl)ccc23)cc1
55 | 82 to 83 °C | COc1ccc2[nH]c(Br)c(CCNC(=O)C3CC3)c2c1
56 | 181 to 182 °C | O=C(O)c1cccc(-n2nnnc2S)c1
57 | 145 to 147 °C | Clc1ccc(SC(CCc2ccccc2)Cn2ccnc2)cc1Cl (stereo unspecified)
58 | 219 to 221 °C | N#Cc1cnc2cc(-c3ccc(CN4CCOCC4)cn3)ccc2c1Nc1ccc(Oc2ccccc2)cc1
59 | 130 to 132 °C | COC(=O)Cc1sc(SCc2cc(O)nc(C)n2)nc1C
60 | 89 to 90 °C | CCOC(=O)C(=O)c1cn(CCCNC(=O)OC(C)(C)C)c2ccccc12
61 | 151 to 158 °C | Cc1nc(N)nc(N)c1CCCc1ccccc1C(F)(F)F
62 | 82 °C | Cn1nc(-c2cc(N)c(F)cc2F)c(Cl)c1C(F)(F)F
63 | 178 to 180 °C | COC(=O)c1ccc2c(c1C(=O)OC)C(=O)OC2=O
64 | 118 to 119 °C | CCCCCCCCCCCCCCCCCCOCC(O)Cn1cc(F)c(N)nc1=O (stereo unspecified)
65 | 173 °C | NC(C=Cc1ccccc1[N+](=O)[O-])=NO
66 | 133 to 134 °C | CC1(C)NC(SCc2ccccc2)=NC1=S
67 | 259 to 260 °C | COc1ccc2c(c1)c(-c1cc3c(C(=O)N4CCOCC4)ccnc3[nH]1)cn2C
68 | 66 to 67 °C | CCCCCCCCCCCCCCCCc1nc(N(C)C)nc(OC)c1Br
69 | 50 to 52 °C | C=CC(=O)Oc1ccc(N2C(=O)C(=C(C)C)/C(=C(\c3cc(C)oc3C)C(C)C)C2=O)cc1
70 | 122 to 124 °C | O=C(c1cccs1)c1cccc2c1CCC2C(=O)O (stereo unspecified)
71 | 153 to 154 °C | CCOC(=O)C=C(C)C=CC=C(C)C=Cc1c(C)c(CC)c(OC)c(CC)c1C
72 | 111 °C | CCOC(=O)C(=O)c1cc(Cl)c(C)cc1NC(=O)OC(C)(C)C
73 | 124 °C | CCC(=O)OCC1OC(n2cnc3c(OC)nc(N)nc32)C(O)C1O (stereo unspecified)
74 | 200 to 206 °C | Cc1ccc2c(c1)-c1nn(-c3ccc(Cl)cc3)c(=O)cc1CS2
75 | 35 to 36 °C | CCCCCC[C@@H]1C[C@H](c2ccc(OC)cc2)C(=O)O1

Row | melting point | SMILES
76 | 133 to 135 °C | CC(C)(C)ONC(=O)C(C)(C)CCOc1ccc(C2=NNC(=O)CC2)cc1Cl
77 | 117 to 119 °C | COc1cccc(C(=O)N(C(=O)OCCl)N(C(=O)c2cc(C)cc(C)c2)C(C)(C)C)c1C
78 | 228 to 230 °C | Cc1cc(C2(O)C(=O)c3ccccc3C2=O)c(C)cc1O
79 | 122 °C | Cc1ccc2c(c1)CCC1=C2CCC(=O)N1C
80 | 295 °C | NS(=O)(=O)c1ccc(C2CCN(c3ccncc3)CC2)cc1
81 | 75 to 78 °C | COc1ccc(C(=O)C(NCCc2ccc(OC)c(OC)c2Cl)SC)cc1 (stereo unspecified)
82 | 134 to 137 °C | Cc1nc(C)c(Cl)c(NCc2nccc(SCCCSCCO)c2C)n1
83 | 166 to 170 °C | CS(=O)(=O)N1CCN(c2ccc(C(=O)CCc3ccc(N)cc3)cc2)CC1
84 | 133 to 134 °C | COC(=O)c1cccc(-c2cccc(Oc3ccc(Cl)c(Cl)c3)n2)c1
85 | 158 to 160 °C | CCCCC(=O)c1c(-c2ccc3cc(OCC(=O)O)ccc3c2)oc2ccc(Cl)cc12
86 | 177 to 178 °C | Nc1ccc(N2C(=O)CCCC2c2ccc(Cl)c(Cl)c2)cc1 (stereo unspecified)
87 | 34.5 to 36 °C | Cc1c(N)noc1C(F)(F)F
88 | 160 to 162 °C | COc1ccc(O)c(C2Sc3ccccc3N(C)C2=O)c1 (single isomer, unassigned; (-))
89 | 113 to 115 °C | N#CC(C#N)=CN(N=C(C#N)C#N)c1cccc(Cl)c1
90 | 208 to 212 °C | CC(C)N1CCN(S(=O)(=O)c2ccc(NC(=O)Nc3ccc(C(F)(F)F)cc3)cc2)CC1
91 | 136 to 139 °C | C=CCNc1cc(F)ccc1C(=O)O
92 | 185 to 186 °C | Cn1nnnc1C(C=O)=C(c1ccccc1)c1ccccc1
93 | 65 to 67 °C | CC(C)(Oc1ccc(CN(Cc2ccccc2)c2ccc(Cl)cc2)cc1)C(=O)O
94 | 94 to 96 °C | O=S(=O)(NCCN1CC(c2ccccc2)C(c2ccc(Cl)cc2)=N1)c1cccc(C(F)(F)F)c1 (stereo unspecified)
95 | 262 to 264 °C | Cc1nn(C)c2c1c1oc(=O)c(Br)c(O)c1c(=O)n2Cc1ccc(F)cc1
96 | 165 to 166 °C | N#Cc1cc[nH]c1-c1ccc(Cl)cc1
97 | 178 to 179 °C | CCCCNC(=O)ONC(=O)Cc1ccc2c(C(=O)OCC)c(N)c(C(=O)OCC)c-2cc1
98 | 155 to 156 °C | Cc1c(SCCCSc2ccc3ncc([N+](=O)[O-])n3n2)ccnc1C(S)c1nc2cc(S(C)(=O)=O)ccc2[nH]1 (stereo unspecified)
99 | 98 to 101 °C | Cn1ccnc1Sc1ccc(Nc2c(C#N)cnc3cc(-c4ccc(C(=O)N5CCOCC5)cc4)ccc23)cc1Cl
100 | 44 °C | CCCCCCCCCCCCCCCCOCC(CO)OCOC(C)=O (stereo unspecified)
101 | 48 to 49 °C | CCCCCCCCCCCCCCOC(=O)CCC(=O)O
